Reference: the supplement of paper PMC10307832

Assays:
Assay in all cases: relative viability (nuclei count vs DMSO), 5 days (fraction); higher = more cells survive
Trametinib + Luminespib = compound: CC(=O)Nc1cccc(-n2c(=O)n(C3CC3)c(=O)c3c(Nc4ccc(I)cc4F)n(C)c(=O)c(C)c32)c1 [Trametinib] + CCNC(=O)c1noc(-c2cc(C(C)C)c(O)cc2O)c1-c1ccc(CN2CCOCC2)cc1 [Luminespib] (partner 0.01 µM)
How it was run: (§1)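 Dosing by pin tool came one day after lung cancer cell lines were seeded in 1536-well plates, using either one drug or a fixed anchor-drug dose plus five library-drug doses (not always all listed) in √10 steps. After 5 days, nuclei were counted on 4× images. Relative viability is treated-well nuclei count divided by vehicle-well nuclei count, and values are medians of duplicate plates.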

Trametinib + Olaparib = compound: CC(=O)Nc1cccc(-n2c(=O)n(C3CC3)c(=O)c3c(Nc4ccc(I)cc4F)n(C)c(=O)c(C)c32)c1 [Trametinib] + O=C(c1cc(Cc2n[nH]c(=O)c3ccccc23)ccc1F)N1CCN(C(=O)C2CC2)CC1 [Olaparib] (partner 8 µM)
How it was run: as §1

[1] = compound: CN1C=C(C2=CC=CC=C21)/C=C\3/C4=C(C=CC=N4)NC3=O + COc1cccc2cc(-c3nc([C@H]4CC[C@H](C(=O)O)CC4)n4ncnc(N)c34)[nH]c12 [OSI-027] (partner 0.5 µM)
How it was run: as §1

[2] = compound: CN1C=C(C2=CC=CC=C21)/C=C\3/C4=C(C=CC=N4)NC3=O + NC(=O)Nc1cc(-c2cccc(F)c2)sc1C(=O)N[C@H]1CCCNC1 [AZD7762] (partner 0.2 µM)
How it was run: as §1

| Cell Line | relative viability (Trametinib + Luminespib; first compound 0.0025 µM) | relative viability (Trametinib + Luminespib; first compound 0.007906 µM) | relative viability (Trametinib + Luminespib; first compound 0.025 µM) | relative viability (Trametinib + Luminespib; first compound 0.07906 µM) | relative viability (Trametinib + Luminespib; first compound 0.25 µM) | relative viability (Trametinib + Olaparib; first compound 0.0025 µM) | relative viability (Trametinib + Olaparib; first compound 0.007906 µM) | relative viability (Trametinib + Olaparib; first compound 0.025 µM) | relative viability (Trametinib + Olaparib; first compound 0.07906 µM) | relative viability (Trametinib + Olaparib; first compound 0.25 µM) | relative viability ([1]; first compound 0.02 µM) | relative viability ([1]; first compound 0.06325 µM) | relative viability ([1]; first compound 0.6325 µM) | relative viability ([1]; first compound 2 µM) | relative viability ([2]; first compound 0.02 µM) | relative viability ([2]; first compound 0.6325 µM) | relative viability ([2]; first compound 2 µM) | relative viability ([1]; first compound 0.2 µM) | relative viability ([2]; first compound 0.06325 µM) | relative viability ([2]; first compound 0.2 µM) |
| --- | --- | --- | --- | --- | --- | --- | --- | --- | --- | --- | --- | --- | --- | --- | --- | --- | --- | --- | --- | --- |
| SW 900 | 0.189 | 0.167 | 0.15 | 0.169 | 0.17 | 0.838 | 0.782 | 0.669 | 0.809 | 0.518 | 0.601 | 0.49 | 0.6 | 0.703 | 0.512 | 0.555 | 0.591 |  |  |  |
| NCI-H441 | 0.331 | 0.264 | 0.362 | 0.285 | 0.327 | 0.601 | 0.614 | 0.535 | 0.483 | 0.389 | 0.557 | 0.646 | 0.607 | 0.459 | 1.15 | 1.06 | 1.05 | 0.739 | 1.21 | 1.19 |
| NCI-H1623 | 0.593 | 0.406 | 0.315 | 0.287 | 0.344 |  |  |  |  |  | 0.371 | 0.404 | 0.38 | 0.379 |  |  |  | 0.359 |  |  |
| NCI-H1437 | 1.12 | 0.923 | 0.709 | 0.627 | 0.602 | 0.601 | 0.518 | 0.446 | 0.422 | 0.443 | 0.862 | 0.897 | 0.927 | 1.01 | 1.23 | 1.17 | 1.26 | 0.793 | 1.2 | 1.1 |
| PC-14 | 0.125 | 0.147 | 0.127 | 0.152 | 0.147 | 0.282 | 0.225 | 0.216 | 0.222 | 0.106 | 0.95 | 0.819 | 0.84 | 0.785 | 0.254 | 0.306 | 0.264 | 0.751 | 0.307 | 0.19 |
| LCLC-103H | 0.769 | 0.761 | 0.735 | 0.767 | 0.668 | 0.723 | 0.638 | 0.655 | 0.593 | 0.581 | 0.402 | 0.416 | 0.509 | 0.461 | 0.864 | 0.741 | 0.786 | 0.494 | 0.758 | 0.73 |
| COR-L23 | 0.638 | 0.462 | 0.306 | 0.248 | 0.236 | 0.422 | 0.473 | 0.43 | 0.392 | 0.261 | 0.713 | 0.716 | 0.723 | 0.843 |  |  |  | 0.829 |  |  |
| HCC-366 |  |  |  |  |  | 0.294 | 0.293 | 0.206 | 0.145 | 0.0982 | 0.678 | 0.89 | 0.852 | 0.75 | 0.29 | 0.178 | 0.24 | 0.52 | 0.278 | 0.0805 |
| SK-MES-1 | 0.498 | 0.368 | 0.277 | 0.231 | 0.207 | 0.841 | 0.737 | 0.546 | 0.373 | 0.245 | 0.58 | 0.628 | 0.608 | 0.446 |  |  |  | 0.582 |  |  |
| NCI-H520 | 0.252 | 0.2 | 0.259 | 0.253 | 0.218 | 0.353 | 0.317 | 0.355 | 0.306 | 0.302 | 0.199 | 0.223 | 0.275 | 0.266 |  |  |  | 0.289 |  |  |
| SW 1573 | 0.181 | 0.237 | 0.13 | 0.157 | 0.163 | 0.414 | 0.456 | 0.407 | 0.342 | 0.223 | 0.737 | 0.557 | 0.54 | 0.551 |  |  |  | 0.559 |  |  |
| NCI-H2023 | 0.582 | 0.403 | 0.51 | 0.575 | 0.197 | 0.492 | 0.448 | 0.419 | 0.447 | 0.294 | 0.395 | 0.351 | 0.337 | 0.316 |  |  |  | 0.231 |  |  |
| SK-LU-1 | 0.216 | 0.187 | 0.176 | 0.17 | 0.159 | 0.429 | 0.364 | 0.406 | 0.311 | 0.274 | 0.273 | 0.284 | 0.354 | 0.382 |  |  |  | 0.333 |  |  |
| EBC-1 |  |  |  |  |  | 0.745 | 0.681 | 0.543 | 0.179 | 0.195 |  |  |  |  |  |  |  |  |  |  |
| NCI-H1703 |  |  |  |  |  | 0.492 | 0.513 | 0.323 | 0.385 | 0.274 |  |  |  |  | 0.107 | 0.112 | 0.14 |  | 0.138 | 0.118 |
| NCI-H1563 | 0.515 | 0.481 | 0.505 | 0.476 | 0.569 |  |  |  |  |  | 0.741 | 0.75 | 0.778 | 0.75 |  |  |  | 0.743 |  |  |
| NCI-H2228 | 0.15 | 0.0886 | 0.134 | 0.0863 | 0.112 | 0.691 | 0.541 | 0.641 | 0.422 | 0.224 | 0.576 | 0.452 |  | 0.462 |  |  |  |  |  |  |
| NCI-H1299 |  |  |  |  |  | 1.04 | 1 | 0.942 | 0.832 | 0.587 |  |  |  |  |  |  |  |  |  |  |
| A549 |  |  |  |  |  | 0.29 | 0.27 | 0.14 | 0.211 | 0.0478 |  |  |  |  |  |  |  |  |  |  |
| NCI-H1650 | 0.209 | 0.2 | 0.176 | 0.174 | 0.211 | 0.852 | 0.735 | 0.638 | 0.568 | 0.332 | 0.55 | 0.541 | 0.458 | 0.539 |  |  |  | 0.437 |  |  |
| NCI-H1648 |  |  |  |  |  | 0.828 | 0.671 | 0.88 | 0.653 | 0.555 |  | 0.239 | 0.258 | 0.281 | 0.705 | 0.522 | 0.816 | 0.259 | 0.502 | 0.673 |
| NCI-H661 | 0.914 | 0.917 | 0.888 | 0.702 | 0.641 | 0.718 | 0.704 | 0.633 | 0.637 | 0.564 | 0.751 | 0.689 | 0.676 | 0.76 |  |  |  | 0.722 |  |  |
| Calu-6 |  |  |  |  |  | 0.589 | 0.452 | 0.214 | 0.142 | 0.129 |  |  |  |  |  |  |  |  |  |  |
